From ChEMBL document CHEMBL1122862, “Synthesis and antibacterial activity of 2,2'-dithiobis(benzamide) derivatives against Mycobacterium species” (1985)
In brackets after ≈: the same amount, converted by molar mass.

Legend:
Assay type in all cases: functional
[1] = test system: Mycobacterium tuberculosis; experiment: Antibacterial activity against Mycobacterium tuberculosis H37Rv.
[2] = test system: Mycobacterium intracellulare; experiment: Antibacterial activity against Mycobacterium intracellular.
Mycobacterium kansasii = experiment: Antibacterial activity against Mycobacterium kansasii

SMILES | MIC [1] [µg/mL] | MIC [2] [µg/mL] | MIC (Mycobacterium kansasii) [µg/mL]
CN[C@@H]1[C@H](O[C@H]2[C@H](O[C@H]3[C@H](O)[C@@H](O)[C@H](N=C(N)N)[C@@H](O)[C@@H]3N=C(N)N)O[C@@H](C)[C@]2(O)C=O)O[C@@H](CO)[C@H](O[C@@H]2O[C@H](CO)[C@@H](O)[C@H](O)[C@@H]2O)[C@H]1O | 0.78 (≈ 1.05 µM) | 12.5 (≈ 16.8 µM) | 3.13 (≈ 4.21 µM)
O=C(c1ccccc1SSc1ccccc1C(=O)N1CCN(C/C=C/c2ccccc2)CC1)N1CCN(C/C=C/c2ccccc2)CC1 | 100 (≈ 148 µM) | > 100 | > 100
CCOC(=O)CNC(=O)c1ccccc1SSc1ccccc1C(=O)NCC(=O)OCC | 25 (≈ 52.5 µM) | 25 (≈ 52.5 µM) | 25 (≈ 52.5 µM)
O=C(NCC(O)c1ccccc1)c1ccccc1SSc1ccccc1C(=O)NCC(O)c1ccccc1 (stereo not drawn) | 100 (≈ 184 µM) | > 100 | 100 (≈ 184 µM)
CCCCc1ccc(NC(=O)c2ccccc2SSc2ccccc2C(=O)Nc2ccc(CCCC)cc2)cc1 | 0.78 (≈ 1.37 µM) | 12.5 (≈ 22 µM) | 12.5 (≈ 22 µM)
O=C(NCC(O)c1ccc(O)c(O)c1)c1ccccc1SSc1ccccc1C(=O)NCC(O)c1ccc(O)c(O)c1 (stereo not drawn) | 100 (≈ 164 µM) | > 100 | > 100
O=C(NCCNCCO)c1ccccc1SSc1ccccc1C(=O)NCCNCCO | 25 (≈ 52.2 µM) | > 100 | > 100
O=C(NCc1cccc2ccccc12)c1ccccc1SSc1ccccc1C(=O)NCc1cccc2ccccc12 | > 100 | > 100 | > 100
O=C(Nc1cc2ccccc2cc1O)c1ccccc1SSc1ccccc1C(=O)Nc1cc2ccccc2cc1O | 12.5 (≈ 21.2 µM) | 50 (≈ 84.9 µM) | 25 (≈ 42.5 µM)
CCn1c2ccccc2c2cc(NC(=O)c3ccccc3SSc3ccccc3C(=O)Nc3ccc4c(c3)c3ccccc3n4CC)ccc21 | 3.13 (≈ 4.53 µM) | > 100 | 50 (≈ 72.4 µM)
CCCCCCCCCCCCCCCC(=O)OCCNC(=O)c1ccccc1SSc1ccccc1C(=O)NCCOC(=O)CCCCCCCCCCCCCCC | 100 (≈ 115 µM) | 100 (≈ 115 µM) | 100 (≈ 115 µM)
CN1CCCN(C(=O)c2ccccc2SSc2ccccc2C(=O)N2CCCN(C)CC2)CC1 | > 100 | > 100 | > 100
O=C(c1ccccc1SSc1ccccc1C(=O)N1C(=O)c2ccccc2C1=O)N1C(=O)c2ccccc2C1=O | > 100 | > 100 | > 100
CCOc1ccc2nc(NC(=O)c3ccccc3SSc3ccccc3C(=O)Nc3nc4ccc(OCC)cc4s3)sc2c1 | > 100 | > 100 | > 100
CC(CCc1ccccc1)NC(=O)c1ccccc1SSc1ccccc1C(=O)NC(C)CCc1ccccc1 (stereo not drawn) | 100 (≈ 176 µM) | > 100 | > 100
CCCCCCCCCCCC(=O)OCCCNC(=O)c1ccccc1SSc1ccccc1C(=O)NCCCOC(=O)CCCCCCCCCCC | 0.78 (≈ 0.993 µM) | > 100 | 12.5 (≈ 15.9 µM)
CCC(CO)NC(=O)c1ccccc1SSc1ccccc1C(=O)NC(CC)CO (stereo not drawn) | 12.5 (≈ 27.9 µM) | 25 (≈ 55.7 µM) | 25 (≈ 55.7 µM)
O=C(Nc1cccc([N+](=O)[O-])c1)c1ccccc1SSc1ccccc1C(=O)Nc1cccc([N+](=O)[O-])c1 | 100 (≈ 183 µM) | > 100 | > 100
O=C(NCO)c1ccccc1SSc1ccccc1C(=O)NCO | 6.25 (≈ 17.1 µM) | 25 (≈ 68.6 µM) | 25 (≈ 68.6 µM)
O=C(c1ccccc1SSc1ccccc1C(=O)n1nnc2ccccc21)n1nnc2ccccc21 | > 100 | > 100 | > 100
CCCCCCCCCCCC(=O)OC(C)CNC(=O)c1ccccc1SSc1ccccc1C(=O)NCC(C)OC(=O)CCCCCCCCCCC (stereo not drawn) | 3.13 (≈ 3.99 µM) | 100 (≈ 127 µM) | 50 (≈ 63.7 µM)
CCC(CO)(CO)NC(=O)c1ccccc1SSc1ccccc1C(=O)NC(CC)(CO)CO | 25 (≈ 49.1 µM) | 100 (≈ 197 µM) | 25 (≈ 49.1 µM)
CCOCCCNC(=O)c1ccccc1SSc1ccccc1C(=O)NCCCOCC | 1.56 (≈ 3.27 µM) | 12.5 (≈ 26.2 µM) | 12.5 (≈ 26.2 µM)
O=c1c2ccccc2sn1CCO | 12.5 (≈ 64 µM) | 12.5 (≈ 64 µM) | 25 (≈ 128 µM)
CCCCN(CCCC)C(=O)c1ccccc1SSc1ccccc1C(=O)N(CCCC)CCCC | 6.25 (≈ 11.8 µM) | 25 (≈ 47.3 µM) | 25 (≈ 47.3 µM)
CCCCCCCCCCCCNC(=O)c1ccccc1SSc1ccccc1C(=O)NCCCCCCCCCCCC | 3.13 (≈ 4.88 µM) | 50 (≈ 78 µM) | 25 (≈ 39 µM)

SMILES | MIC [1] [µg/mL] | MIC [2] [µg/mL] | MIC (Mycobacterium kansasii) [µg/mL]
O=C(O)Cc1ccc(NC(=O)c2ccccc2SSc2ccccc2C(=O)Nc2ccc(CC(=O)O)cc2)cc1 | 100 (≈ 175 µM) | 100 (≈ 175 µM) | 100 (≈ 175 µM)
O=C(NCc1ccco1)c1ccccc1SSc1ccccc1C(=O)NCc1ccco1 | 25 (≈ 53.8 µM) | 25 (≈ 53.8 µM) | 25 (≈ 53.8 µM)
O=C(Nc1cccc(Cl)c1)c1ccccc1SSc1ccccc1C(=O)Nc1cccc(Cl)c1 | 3.13 (≈ 5.96 µM) | 25 (≈ 47.6 µM) | 12.5 (≈ 23.8 µM)
CCCCC(CC)CNC(=O)c1ccccc1SSc1ccccc1C(=O)NCC(CC)CCCC (stereo not drawn) | 1.56 (≈ 2.95 µM) | 50 (≈ 94.5 µM) | 3.13 (≈ 5.92 µM)
CC(=O)OCCCNC(=O)c1ccccc1SSc1ccccc1C(=O)NCCCOC(C)=O | 12.5 (≈ 24.8 µM) | 25 (≈ 49.5 µM) | 25 (≈ 49.5 µM)
O=C(Nc1ccc2ccccc2c1)c1ccccc1SSc1ccccc1C(=O)Nc1ccc2ccccc2c1 | 1.56 (≈ 2.8 µM) | 6.25 (≈ 11.2 µM) | 6.25 (≈ 11.2 µM)
CCCCCCCCCCCCCCCCCCCC(=O)OCCCNC(=O)c1ccccc1SSc1ccccc1C(=O)NCCCOC(=O)CCCCCCCCCCCCCCCCCCC | > 100 | > 100 | > 100
CC(O)Cn1sc2ccccc2c1=O (stereo not drawn) | 12.5 (≈ 59.7 µM) | 12.5 (≈ 59.7 µM) | 25 (≈ 119 µM)
O=C(Nc1ccccc1Cl)c1ccccc1SSc1ccccc1C(=O)Nc1ccccc1Cl | 25 (≈ 47.6 µM) | > 100 | 100 (≈ 190 µM)
CCNC(=O)OCCNC(=O)c1ccccc1SSc1ccccc1C(=O)NCCOC(=O)NCC | 25 (≈ 46.8 µM) | 25 (≈ 46.8 µM) | 25 (≈ 46.8 µM)
CCOC(=O)c1ccc(NC(=O)c2ccccc2SSc2ccccc2C(=O)Nc2ccc(C(=O)OCC)cc2)cc1 | 3.13 (≈ 5.21 µM) | 25 (≈ 41.6 µM) | 25 (≈ 41.6 µM)
CC(C)(CO)NC(=O)c1ccccc1SSc1ccccc1C(=O)NC(C)(C)CO | 12.5 (≈ 27.9 µM) | 12.5 (≈ 27.9 µM) | 12.5 (≈ 27.9 µM)
CCCCCCCCCCNC(=O)c1ccccc1SSc1ccccc1C(=O)NCCCCCCCCCC | 12.5 (≈ 21.4 µM) | 25 (≈ 42.7 µM) | 12.5 (≈ 21.4 µM)
CCCCCCC(=O)OCCCNC(=O)c1ccccc1SSc1ccccc1C(=O)NCCCOC(=O)CCCCCC | 0.78 (≈ 1.21 µM) | 12.5 (≈ 19.4 µM) | 0.39 (≈ 0.605 µM)
O=C(NCCO)c1ccccc1SSc1ccccc1C(=O)NCCO | 6.25 (≈ 15.9 µM) | 25 (≈ 63.7 µM) | 25 (≈ 63.7 µM)
CCOC(CN1CCN(C(=O)c2ccccc2SSc2ccccc2C(=O)N2CCN(CC(OCC)c3ccccc3)CC2)CC1)c1ccccc1 (stereo not drawn) | > 100 | > 100 | > 100
O=C(Nc1ccc(Cl)c2ccccc12)c1ccccc1SSc1ccccc1C(=O)Nc1ccc(Cl)c2ccccc12 | 12.5 (≈ 20 µM) | > 100 | 50 (≈ 79.9 µM)
CCc1cc(CC)cc(NC(=O)c2ccccc2SSc2ccccc2C(=O)Nc2cc(CC)cc(CC)c2)c1 | > 100 | > 100 | > 100
O=C(Nc1cccc2cccnc12)c1ccccc1SSc1ccccc1C(=O)Nc1cccc2cccnc12 | 25 (≈ 44.7 µM) | > 100 | 100 (≈ 179 µM)
O=C(NCCCCO)c1ccccc1SSc1ccccc1C(=O)NCCCCO | 6.25 (≈ 13.9 µM) | 25 (≈ 55.7 µM) | 25 (≈ 55.7 µM)
CC(O)CNC(=O)c1ccccc1SSc1ccccc1C(=O)NCC(C)O (stereo not drawn) | 1.56 (≈ 3.71 µM) | 25 (≈ 59.4 µM) | 25 (≈ 59.4 µM)
CC(O)CNC(=O)c1ccc(SSc2ccc(C(=O)NCC(C)O)cc2)cc1 (stereo not drawn) | 100 (≈ 238 µM) | > 100 | > 100
CN1CCN(C(=O)c2ccccc2SSc2ccccc2C(=O)N2CCN(C)CC2)CC1.Cl.Cl | 100 | > 100 | > 100
Cl.Cl.O=C(c1ccccc1SSc1ccccc1C(=O)N1CCN(C(c2ccccc2)c2ccccc2)CC1)N1CCN(C(c2ccccc2)c2ccccc2)CC1 | > 100 | > 100 | > 100
Cl.Cl.O=C(c1ccccc1SSc1ccccc1C(=O)N1CCN(Cc2ccccc2)CC1)N1CCN(Cc2ccccc2)CC1 | 25 | > 100 | 50
